Measured values as given in patent US9637453B2, “3-spirocyclic-6-hydroxamic acid tetralins as HDAC inhibitors” (Forma Therapeutics, Inc., priority 2015, dated 2017).

Legend:
[1] = target: T1, Full length human recombinant HDAC6 (Homo sapiens, UniProt Q9UBN7); assay: In vitro histone deacetylase assay, enzymatic HDAC6 (electrophoretic mobility shift assay); type: biochemical; settings: 1 nM HDAC6; 2 μM peptide substrate FAM-RHKK(Ac)—NH2; 25° C.; 12 concentrations; read-out: HDAC6 Activity Range (IC50)
T1 construct: Full length human recombinant HDAC6 and HDAC11 proteins were expressed in baculoviral system
T1 sequence (Q9UBN7 1-1215): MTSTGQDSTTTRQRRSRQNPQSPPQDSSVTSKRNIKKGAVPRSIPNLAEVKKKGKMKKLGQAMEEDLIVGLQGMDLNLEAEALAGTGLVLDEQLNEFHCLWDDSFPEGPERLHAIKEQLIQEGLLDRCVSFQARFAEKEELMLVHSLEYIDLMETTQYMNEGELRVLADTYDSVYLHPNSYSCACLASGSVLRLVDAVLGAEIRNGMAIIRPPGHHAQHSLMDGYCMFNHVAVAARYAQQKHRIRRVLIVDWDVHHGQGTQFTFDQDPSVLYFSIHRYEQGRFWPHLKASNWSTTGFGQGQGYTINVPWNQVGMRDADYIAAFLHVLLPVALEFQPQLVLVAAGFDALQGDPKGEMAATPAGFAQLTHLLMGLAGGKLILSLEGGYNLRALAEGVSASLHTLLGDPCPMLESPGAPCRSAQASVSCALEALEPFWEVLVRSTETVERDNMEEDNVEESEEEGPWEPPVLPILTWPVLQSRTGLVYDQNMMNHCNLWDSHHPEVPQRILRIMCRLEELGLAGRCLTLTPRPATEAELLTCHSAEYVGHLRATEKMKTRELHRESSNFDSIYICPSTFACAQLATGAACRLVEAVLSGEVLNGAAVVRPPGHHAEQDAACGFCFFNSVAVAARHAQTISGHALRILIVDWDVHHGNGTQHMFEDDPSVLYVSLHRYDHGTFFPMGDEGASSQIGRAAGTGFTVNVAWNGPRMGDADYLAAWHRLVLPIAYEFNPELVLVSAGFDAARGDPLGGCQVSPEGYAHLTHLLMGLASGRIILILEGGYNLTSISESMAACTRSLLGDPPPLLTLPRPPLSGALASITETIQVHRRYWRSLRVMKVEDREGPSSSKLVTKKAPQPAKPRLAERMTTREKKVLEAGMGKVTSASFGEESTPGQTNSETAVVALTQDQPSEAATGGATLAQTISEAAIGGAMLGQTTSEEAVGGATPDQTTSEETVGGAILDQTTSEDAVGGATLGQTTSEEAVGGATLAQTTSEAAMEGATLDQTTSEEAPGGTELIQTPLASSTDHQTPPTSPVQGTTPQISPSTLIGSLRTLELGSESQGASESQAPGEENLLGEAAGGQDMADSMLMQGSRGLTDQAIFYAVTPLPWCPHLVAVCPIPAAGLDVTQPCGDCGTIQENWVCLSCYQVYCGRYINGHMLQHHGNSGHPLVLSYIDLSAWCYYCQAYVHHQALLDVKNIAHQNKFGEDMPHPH
Protocol: (§1) The enzymatic HDAC6 and HDAC11 assays were performed using electrophoretic mobility shift assay. Full length human recombinant HDAC6 and HDAC11 proteins were expressed in baculoviral system and purified by affinity chromatography. The enzymatic reactions were assembled in 384 well plates in a total volume of 25 μL in a reaction buffer composing: 100 mM HEPES, pH 7.5, 25 mM KCl, 0.1% bovine serum albumin, 0.01% Triton X-100, 1% DMSO (from compounds) 2 μM of the fluorescently labeled peptide substrate and enzyme. The enzymes were added at a final concentration of 1 nM for HDAC6, and 10 nM for HDAC11. The peptide substrate FAM-RHKK(Ac)—NH2 was used for HDAC6, and FAM-RHKK(tri-fluor-Ac)—NH2 for HDAC11. The compounds were tested at 12 concentrations spaced by 3× dilution intervals. Negative control samples (0%-inhibition in the absence of inhibitor) and positive control samples (100%-inhibition) were assembled in replicates of four in each assay plate. The reactions were incubated at 25° C. and quenched by the addition of 45 μL of termination buffer (100 mM HEPES, pH 7.5, 0.01% Triton X-100, 0.05% SDS).
(§2) The terminated assay plates were analyzed on LabChip® 3000 microfluidic electrophoresis instrument (Perkin Elmer/Caliper Life Sciences). The fluorescence intensity of the electrophoretically separated de-acetylated product and substrate peptide was measured. Activity in each sample was determined as the product to sum ratio (PSR): P/(S+P), where P is the peak height of the product peptide and S is the peak height of the substrate peptide. Percent inhibition (Pinh) is determined using following equation:
(§3) Pinh=(PSR0%−PSRinh)/(PSR0%−PSR100%)*100, where PSRinh is the product sum ratio in the presence of inhibitor, PSR0% is the average product sum ration in the absence of inhibitor and PSR100% is the average product sum ratio in 100%-inhibition control samples. The IC50 values of inhibitors were determined by fitting the %-inhibition curves with 4 parameter dose-response model using XLfit 4 software.
(§4) As set forth in Table-26 and Table-27, below, IC5o values are defined as follows: IC50≦0.1 μM (+++); IC50>0.1 μM and ≦0.5 μM (++); IC50>0.5 μM (+).

[2] = target: T2, Full length human recombinant HDAC11 (Homo sapiens, UniProt Q96DB2); assay: In vitro histone deacetylase assay, enzymatic HDAC11 (electrophoretic mobility shift assay); type: biochemical; settings: 10 nM HDAC11; 2 μM peptide substrate FAM-RHKK(tri-fluor-Ac)—NH2; 25° C.; 12 concentrations; read-out: HDAC11 Activity Range (IC50)
T2 construct: Full length human recombinant HDAC6 and HDAC11 proteins were expressed in baculoviral system
T2 sequence (Q96DB2 1-347): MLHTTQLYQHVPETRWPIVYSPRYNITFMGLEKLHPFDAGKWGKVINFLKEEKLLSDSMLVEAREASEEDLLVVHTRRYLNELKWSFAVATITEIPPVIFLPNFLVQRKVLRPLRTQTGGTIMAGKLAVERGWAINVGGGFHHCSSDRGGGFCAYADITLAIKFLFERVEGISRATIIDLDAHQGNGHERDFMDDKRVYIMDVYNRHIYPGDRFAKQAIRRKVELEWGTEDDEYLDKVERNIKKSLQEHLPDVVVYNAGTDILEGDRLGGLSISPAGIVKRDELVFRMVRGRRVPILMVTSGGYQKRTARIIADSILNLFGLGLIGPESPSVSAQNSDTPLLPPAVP
Protocol: as §1, §2, §3, §4

| IC50 [1] | IC50 [2] | SMILES |
| --- | --- | --- |
| 100 to 500 nM | > 500 nM | CN1CC[C@@]2(CCc3ccc(C(=O)NO)cc3C2)C1 [Compound I-18, (S)—N-hydroxy-1′-methyl-3,4-dihydro-1H-spiro[naphthalene-2,3′-pyrrolidine]-7-carboxamide] |
| 100 to 500 nM | > 500 nM | CN1CC[C@]2(CCc3ccc(C(=O)NO)cc3C2)C1 [Compound I-19, (R)—N-hydroxy-1′-methyl-3,4-dihydro-1H-spiro[naphthalene-2,3′-pyrrolidine]-7-carboxamide] |
| ≤ 100 nM | 100 to 500 nM | COc1ccc(CCN2CCC3(CCc4ccc(C(=O)NO)cc4C3)C2=O)cc1 (centres unmarked) [Compound I-20, N-hydroxy-1′-(4-methoxyphenethyl)-2′-oxo-3,4-dihydro-1H-spiro[naphthalene-2,3′-pyrrolidine]-7-carboxamide] |
| ≤ 100 nM | ≤ 100 nM | O=C(NO)c1ccc2c(c1)CC1(CC2)CCN(Cc2ccc(Cl)c(Cl)c2)C1=O (centres unmarked) [Compound I-21, 1′-(3,4-dichlorobenzyl)-N-hydroxy-2′-oxo-3,4-dihydro-1H-spiro[naphthalene-2,3′-pyrrolidine]-7-carboxamide] |
| ≤ 100 nM | > 500 nM | O=C(NO)c1ccc2c(c1)CC1(CC2)CCN(Cc2ccncc2)C1=O (centres unmarked) [Compound I-22, N-hydroxy-2′-oxo-1′-(pyridin-4-ylmethyl)-3,4-dihydro-1H-spiro[naphthalene-2,3′-pyrrolidine]-7-carboxamide] |
| ≤ 100 nM | 100 to 500 nM | O=C(NO)c1ccc2c(c1)CC1(CC2)CCN(CC2CCCCC2)C1=O (centres unmarked) [Compound I-23, 1′-(cyclohexylmethyl)-N-hydroxy-2′-oxo-3,4-dihydro-1H-spiro[naphthalene-2,3′-pyrrolidine]-7-carboxamide] |
| 100 to 500 nM | > 500 nM | CC(C)N1CCC2(CCc3ccc(C(=O)NO)cc3C2)C1=O (centres unmarked) [Compound I-24, N-hydroxy-1′-isopropyl-2′-oxo-3,4-dihydro-1H-spiro[naphthalene-2, 3′-pyrrolidine]-7-carboxamide] |
| ≤ 100 nM | > 500 nM | CN(C)CCCN1CCC2(CCc3ccc(C(=O)NO)cc3C2)C1=O (centres unmarked) [Compound I-25, 1′-(3-(dimethylamino)propyl)-N-hydroxy-2′-oxo-3,4-dihydro-1H-spiro[naphthalene-2,3′-pyrrolidine]-7-carboxamide] |
| ≤ 100 nM | 100 to 500 nM | O=C(NO)c1ccc2c(c1)CC1(CC2)CCN(c2ccccc2)C1=O (centres unmarked) [Compound I-26, N-hydroxy-2′-oxo-1′-phenyl-3,4-dihydro-1H-spiro[naphthalene-2,3′-pyrrolidine]-7-carboxamide] |
| ≤ 100 nM | ≤ 100 nM | O=C(NO)c1ccc2c(c1)CC1(CC2)CCN(Cc2ccc(Cl)c(C(F)(F)F)c2)C1=O (centres unmarked) [Compound I-27, 1′-(4-chloro-3-(trifluoromethyl)benzyl)-N-hydroxy-2′-oxo-3,4-dihydro-1H-spiro[naphthalene-2,3′-pyrrolidine]-7-carboxamide] |
| ≤ 100 nM | 100 to 500 nM | O=C(NO)c1ccc2c(c1)C[C@@]1(CC2)CCN(c2cccnc2)C1=O [Compound I-28, (S)—N-hydroxy-2′-oxo-1′-(pyridin-3-yl)-3,4-dihydro-1H-spiro[naphthalene-2,3′-pyrrolidine]-7-carboxamide] |
| ≤ 100 nM | > 500 nM | O=C(NO)c1ccc2c(c1)C[C@]1(CC2)CCN(c2cccnc2)C1=O [Compound I-29, (R)—N-hydroxy-2′-oxo-1′-(pyridin-3-yl)-3,4-dihydro-1H-spiro[naphthalene-2,3′-pyrrolidine]-7-carboxamide] |
| ≤ 100 nM | > 500 nM | O=C(NO)c1ccc2c(c1)CC1(CC2)CCN(c2ccncc2)C1=O (centres unmarked) [Compound I-30, N-hydroxy-2′-oxo-1′-(pyridin-4-yl)-3,4-dihydro-1H-spiro[naphthalene-2,3′-pyrrolidine]-7-carboxamide] |
| ≤ 100 nM | > 500 nM | O=C(NO)c1ccc2c(c1)C[C@@]1(CC2)CCN(c2nc3ccccc3[nH]2)C1=O [Compound I-31, (S)-1′-(1H-benzo[d]imidazol-2-yl)-N-hydroxy-2′-oxo-3,4-dihydro-1H-spiro[naphthalene-2,3′-pyrrolidine]-7-carboxamide] |
| ≤ 100 nM | > 500 nM | O=C(NO)c1ccc2c(c1)C[C@]1(CC2)CCN(c2nc3ccccc3[nH]2)C1=O [Compound I-32, (R)-1′-(1H-benzo[d]imidazol-2-yl)-N-hydroxy-2′-oxo-3,4-dihydro-1H-spiro[naphthalene-2,3′-pyrrolidine]-7-carboxamide] |
| ≤ 100 nM | > 500 nM | COCCn1c(N2CC[C@@]3(CCc4ccc(C(=O)NO)cc4C3)C2=O)nc2ccccc21 [Compound I-33, (S)—N-hydroxy-1′-(1-(2-methoxyethyl)-1H-benzo[d]imidazol-2-yl)-2′-oxo-3,4-dihydro-1H-spiro[naphthalene-2,3′-pyrrolidine]-7-carboxamide] |
| ≤ 100 nM | ≤ 100 nM | COCCn1c(N2CC[C@]3(CCc4ccc(C(=O)NO)cc4C3)C2=O)nc2ccccc21 [Compound I-34, (R)—N-hydroxy-1′-(1-(2-methoxyethyl)-1H-benzo[d]imidazol-2-yl)-2′-oxo-3,4-dihydro-1H-spiro[naphthalene-2,3′-pyrrolidine]-7-carboxamide] |
| ≤ 100 nM | > 500 nM | O=C(NO)c1ccc2c(c1)C[C@@]1(CC2)CCN(Cc2ccccc2)C1=O [Compound I-35, (S)-1′-benzyl-N-hydroxy-2′-oxo-3,4-dihydro-1H-spiro[naphthalene-2,3′-pyrrolidine]-7-carboxamide] |
| ≤ 100 nM | 100 to 500 nM | O=C(NO)c1ccc2c(c1)C[C@]1(CC2)CCN(Cc2ccccc2)C1=O [Compound I-36, (R)-1′-benzyl-N-hydroxy-2′-oxo-3,4-dihydro-1H-spiro[naphthalene-2,3′-pyrrolidine]-7-carboxamide] |
